Assay results reported in PubChem BioAssay AID1963425 (Molecular Pharmacology Branch, DTP, NCI, 2024).

System: 323965-272-R-J2-PDC complex spheroid growth, % test/control
Test: Anticancer human tumor 323965-272-R-J2-PDC patient-derived pancreatic carcinoma cell line growth inhibition [Asc]
Details: for IC50: curve of first compound; for viability, T/C: stronger effect = lower value
Summary of the method: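 Tumor cells were grown as multicellular spheroids with stromal HUVEC and mesenchymal stem cells and treated singly or in combination. Concentrations fell in half-log steps from the clinical Cmax, or from 10 microM where none was known.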
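Also: compound exposure lasted 7 days starting three days after spheroid seeding.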
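For viability, T/C in this document: 100% = DMSO vehicle control wells with viability set relative to vehicle.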

Work on `COc1c(OCCCN2CCOCC2)ccc2c3n(c(=NC(=O)c4cnc(N)nc4)nc12)CCN3` + CCN1C(C(=O)NC23CCC(C(=O)O)(CC2)CC3)C(c2cccc(Cl)c2F)C2(C(=O)Nc3cc(Cl)ccc32)C12CCCCC2 yielded an IC50 (second compound 0.00949 µM) of 151 nM, an IC50 (second compound 0.03 µM) of 130 nM and an IC50 (second compound 0.0949 µM) of 130 nM. It also gave an IC50 (second compound 0.3 µM) of 133 nM, an IC50 (second compound 0.949 µM) of 138 nM and an IC50 (second compound 3 µM) of 102 nM. For the same molecule, the viability, T/C (second compound 0.00949 µM, first compound 0.00316 µM) was 96%, the viability, T/C (second compound 0.00949 µM, first compound 0.01 µM) was 97.7% and the viability, T/C (second compound 0.00949 µM, first compound 0.0316 µM) was 70.7%. For the same molecule, the viability, T/C (second compound 0.00949 µM, first compound 0.1 µM) was 62.5%, the viability, T/C (second compound 0.00949 µM, first compound 0.316 µM) was 34.2% and the viability, T/C (second compound 0.00949 µM, first compound 1 µM) was 25.7%. It also gave a viability, T/C (second compound 0.03 µM, first compound 0.00316 µM) of 103%, a viability, T/C (second compound 0.03 µM, first compound 0.01 µM) of 96.4% and a viability, T/C (second compound 0.03 µM, first compound 0.0316 µM) of 73.3%. It also gave a viability, T/C (second compound 0.03 µM, first compound 0.1 µM) of 52.2%, a viability, T/C (second compound 0.03 µM, first compound 0.316 µM) of 42.2% and a viability, T/C (second compound 0.03 µM, first compound 1 µM) of 30.4%. For the same molecule, the viability, T/C (second compound 0.0949 µM, first compound 0.00316 µM) was 97%, the viability, T/C (second compound 0.0949 µM, first compound 0.01 µM) was 85.6% and the viability, T/C (second compound 0.0949 µM, first compound 0.0316 µM) was 78.5%. It also gave a viability, T/C (second compound 0.0949 µM, first compound 0.1 µM) of 50.7%, a viability, T/C (second compound 0.0949 µM, first compound 0.316 µM) of 38.4% and a viability, T/C (second compound 0.0949 µM, first compound 1 µM) of 25.5%. For the same molecule, the viability, T/C (second compound 0.3 µM, first compound 0.00316 µM) was 101%, the viability, T/C (second compound 0.3 µM, first compound 0.01 µM) was 89.2% and the viability, T/C (second compound 0.3 µM, first compound 0.0316 µM) was 69.8%. The viability, T/C (second compound 0.3 µM, first compound 0.1 µM) was 56.3%, the viability, T/C (second compound 0.3 µM, first compound 0.316 µM) was 36.6% and the viability, T/C (second compound 0.3 µM, first compound 1 µM) was 27.6%. It also gave a viability, T/C (second compound 0.949 µM, first compound 0.00316 µM) of 99.7%, a viability, T/C (second compound 0.949 µM, first compound 0.01 µM) of 82.7% and a viability, T/C (second compound 0.949 µM, first compound 0.0316 µM) of 70.3%. It also gave a viability, T/C (second compound 0.949 µM, first compound 0.1 µM) of 51%, a viability, T/C (second compound 0.949 µM, first compound 0.316 µM) of 42.3% and a viability, T/C (second compound 0.949 µM, first compound 1 µM) of 30.1%. It also gave a viability, T/C (second compound 3 µM, first compound 0.00316 µM) of 89.4%, a viability, T/C (second compound 3 µM, first compound 0.01 µM) of 82.4% and a viability, T/C (second compound 3 µM, first compound 0.0316 µM) of 63.9%. The viability, T/C (second compound 3 µM, first compound 0.1 µM) was 49.6%, the viability, T/C (second compound 3 µM, first compound 0.316 µM) was 38.5% and the viability, T/C (second compound 3 µM, first compound 1 µM) was 26%.
